Measured values as given in ChEMBL document CHEMBL1201862, “PubChem BioAssay data set” (2004).
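Cultured in 96-well plates, cells were exposed to test compound for 48 hours across five concentrations. The concentration for 50% growth inhibition is given as GI50.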 Activity calls are given as the source filed them. No stated cut-off is given here; in the data, active = GI50 up to about 1.1 µM and inactive = higher.

Assays:
Assay in all cases: growth of human tumour cells (NCI), 48 h
NCI-H522 = tested on: NCI-H522
TK-10 = tested on: TK-10
A549 = tested on: A549
M14 = tested on: M14
M19-MEL = tested on: M19-MEL
COLO 205 = tested on: COLO 205
SF-295 = tested on: SF-295
SK-MEL-2 = tested on: SK-MEL-2
HOP-62 = tested on: HOP-62
OVCAR-8 = tested on: OVCAR-8
NCI-H460 = tested on: NCI-H460
HCC 2998 = tested on: HCC 2998
HOP-92 = tested on: HOP-92
SN12C = tested on: SN12C
Malme-3M = tested on: Malme-3M
NCI-H226 = tested on: NCI-H226
SNB-75 = tested on: SNB-75
HT-29 = tested on: HT-29
EKVX = tested on: EKVX
NCI/ADR-RES = tested on: NCI/ADR-RES

Row | SMILES | GI50 (NCI-H522) | GI50 (TK-10) | GI50 (A549) | GI50 (M14) | GI50 (M19-MEL) | GI50 (COLO 205) | GI50 (SF-295) | GI50 (SK-MEL-2) | GI50 (HOP-62) | GI50 (OVCAR-8) | GI50 (NCI-H460) | GI50 (HCC 2998) | GI50 (HOP-92) | GI50 (SN12C) | GI50 (Malme-3M) | GI50 (NCI-H226) | GI50 (SNB-75) | GI50 (HT-29) | GI50 (EKVX) | GI50 (NCI/ADR-RES)
1 | CC(=O)Oc1ccc(Nn2c3ccccc3c3ccccc32)c(C)c1 | 19.3 µM (inactive) | 39.3 µM (inactive) | 56.8 µM (inactive) | 29 µM (inactive) | 31.9 µM (inactive) | 31.7 µM (inactive) | 25.8 µM (inactive) | 37 µM (inactive) | 36.1 µM (inactive) | 24.3 µM (inactive) | 27.7 µM (inactive) | 27.7 µM (inactive) | 24.5 µM (inactive) | 41.5 µM (inactive) | 28.6 µM (inactive) |  |  |  |  | 
2 | Clc1ccc(OCc2nnc3n2N=C(c2ccccc2)CS3)cc1 | 17.4 µM (inactive) | 27.3 µM (inactive) | 16.4 µM (inactive) | 21.5 µM (inactive) | 16.9 µM (inactive) | 15.3 µM (inactive) | 19.3 µM (inactive) | 18 µM (inactive) | 19.1 µM (inactive) | 14.1 µM (inactive) | 16.8 µM (inactive) | 16.6 µM (inactive) | 20.9 µM (inactive) | 11.7 µM (inactive) | 17.9 µM (inactive) | 21.5 µM (inactive) | 27 µM (inactive) | 16.3 µM (inactive) |  | 
3 | CC(C)N(C(=O)C12C3C4C1C1C2C3C41I)C(C)C (stereo unspecified) | > 100 µM (inactive) | > 100 µM (inactive) | > 100 µM (inactive) | > 100 µM (inactive) | > 100 µM (inactive) | > 100 µM (inactive) | > 100 µM (inactive) |  |  | > 100 µM (inactive) | > 100 µM (inactive) | > 100 µM (inactive) | 88.9 µM (inactive) | > 100 µM (inactive) | > 100 µM (inactive) | > 100 µM (inactive) | > 100 µM (inactive) | > 100 µM (inactive) | > 100 µM (inactive) | 
4 | CN1C(=O)C(=CN(C)c2ccccc2)C(=O)N(C)C1=O |  | > 100 µM (inactive) | > 100 µM (inactive) | 74.5 µM (inactive) | 49.2 µM (inactive) |  | > 100 µM (inactive) | > 100 µM (inactive) |  | > 100 µM (inactive) | > 100 µM (inactive) | > 100 µM (inactive) |  | > 100 µM (inactive) | 36.9 µM (inactive) | 63.2 µM (inactive) | 92.7 µM (inactive) |  | 65.8 µM (inactive) | 
5 | O=C1C2C(C(=O)N1c1ccccc1)C1([N+](=O)[O-])C=C3c4ccccc4N(C(=O)c4ccccc4)C32C2C(=O)N(c3ccccc3)C(=O)C21 (stereo unspecified) | > 100 µM (inactive) | > 100 µM (inactive) | > 100 µM (inactive) | > 100 µM (inactive) | > 100 µM (inactive) | > 100 µM (inactive) | > 100 µM (inactive) | > 100 µM (inactive) | > 100 µM (inactive) | > 100 µM (inactive) | > 100 µM (inactive) | > 100 µM (inactive) | > 100 µM (inactive) | > 100 µM (inactive) | > 100 µM (inactive) |  | > 100 µM (inactive) | > 100 µM (inactive) |  | 
6 | CC1(Cl)CC(C)(/C=C/Cl)C(Cl)CC1Cl (stereo unspecified) | 16.7 µM (inactive) | 26.1 µM (inactive) | 14 µM (inactive) | 17 µM (inactive) | 18.7 µM (inactive) |  | 15.2 µM (inactive) | 13.5 µM (inactive) | 19.9 µM (inactive) | 16.8 µM (inactive) | 14.2 µM (inactive) | 17.1 µM (inactive) | 0.615 µM (active) | 17.3 µM (inactive) | 14.9 µM (inactive) |  | 18.8 µM (inactive) | 11.6 µM (inactive) | 12.1 µM (inactive) | 
7 | CC1CCCC(C(O)CC2CC(=O)N(c3ccccc3)C(=O)C2)C1=O (stereo unspecified) | > 100 µM (inactive) | > 100 µM (inactive) | > 100 µM (inactive) | > 100 µM (inactive) | > 100 µM (inactive) | > 100 µM (inactive) | > 100 µM (inactive) |  | > 100 µM (inactive) | > 100 µM (inactive) | > 100 µM (inactive) | > 100 µM (inactive) | > 100 µM (inactive) | > 100 µM (inactive) | > 100 µM (inactive) | > 100 µM (inactive) | > 100 µM (inactive) | > 100 µM (inactive) | > 100 µM (inactive) | 
8 | CC(=O)CC(=O)N(CCN(C(=O)CC(C)=O)c1ccccc1)c1ccccc1 | 84.7 µM (inactive) | > 100 µM (inactive) | > 100 µM (inactive) | > 100 µM (inactive) | > 100 µM (inactive) | > 100 µM (inactive) | > 100 µM (inactive) | > 100 µM (inactive) | > 100 µM (inactive) | > 100 µM (inactive) | > 100 µM (inactive) | > 100 µM (inactive) | > 100 µM (inactive) | > 100 µM (inactive) | > 100 µM (inactive) | > 100 µM (inactive) | 51.8 µM (inactive) |  | > 100 µM (inactive) | 
9 | Cc1cccc(C)c1NC(=O)CCC(=O)/N=C(\N)NC#N | > 100 µM (inactive) | > 100 µM (inactive) | > 100 µM (inactive) | > 100 µM (inactive) | > 100 µM (inactive) | > 100 µM (inactive) | > 100 µM (inactive) |  | > 100 µM (inactive) | > 100 µM (inactive) | > 100 µM (inactive) | > 100 µM (inactive) | > 100 µM (inactive) | > 100 µM (inactive) | > 100 µM (inactive) | > 100 µM (inactive) | > 100 µM (inactive) | > 100 µM (inactive) | > 100 µM (inactive) | 
10 | COc1ccc(C2ON(c3cccc(C)n3)CC=C2C)cc1 (stereo unspecified) | 19.2 µM (inactive) |  | 40.7 µM (inactive) | 32.6 µM (inactive) | 34.6 µM (inactive) | 41.4 µM (inactive) | 59.8 µM (inactive) | 27.4 µM (inactive) | 65.3 µM (inactive) | > 100 µM (inactive) | 67.9 µM (inactive) | 59.3 µM (inactive) |  | 70.6 µM (inactive) | 36.6 µM (inactive) | > 100 µM (inactive) | 29 µM (inactive) | 32 µM (inactive) | > 100 µM (inactive) | 
11 | COC(=O)C1=C(O)c2cc3c(cc2[C@H](c2cc(OC)c(OC)c(OC)c2)C1)OCO3 |  | 34.4 µM (inactive) | 57.5 µM (inactive) | 34.7 µM (inactive) | 0.478 µM (active) | 19.3 µM (inactive) | 37.5 µM (inactive) |  | > 100 µM (inactive) | 51.3 µM (inactive) | 34 µM (inactive) | 1.23 µM (inactive) | 96.8 µM (inactive) | 54.1 µM (inactive) | 38.1 µM (inactive) | 87.7 µM (inactive) | > 100 µM (inactive) | 48.1 µM (inactive) |  | 
12 | CC1(O)CC2C(CC1SC1CC3C(CC1(C)O)C3(C)C)C2(C)C (stereo unspecified) |  | 69.7 µM (inactive) | 50.8 µM (inactive) | 48.2 µM (inactive) | 24.9 µM (inactive) | 35.5 µM (inactive) | 46 µM (inactive) | 40.1 µM (inactive) |  | 41.9 µM (inactive) | 30.7 µM (inactive) | 33.6 µM (inactive) | 36.2 µM (inactive) | 36.1 µM (inactive) | 29.6 µM (inactive) | 65.6 µM (inactive) | 27.9 µM (inactive) | 39.6 µM (inactive) | 32.5 µM (inactive) | 
13 | COc1cc2c(cc1OC)C1c3ccccc3C(C#N)(C2)N(C(=O)c2ccccc2)C1O (stereo unspecified) | 21.3 µM (inactive) | 93.1 µM (inactive) |  | 79.1 µM (inactive) | > 100 µM (inactive) | 22.8 µM (inactive) | > 100 µM (inactive) | 56.5 µM (inactive) | 25.7 µM (inactive) | 54.2 µM (inactive) | 59.7 µM (inactive) | > 100 µM (inactive) | > 100 µM (inactive) | > 100 µM (inactive) | > 100 µM (inactive) | 61.1 µM (inactive) | 45.7 µM (inactive) | > 100 µM (inactive) | 75 µM (inactive) | 
14 | [N-]=[N+]=NC1C(O)C(CO)OC1n1ccc(=O)[nH]c1=O (stereo unspecified) | > 875 µM (inactive) | > 875 µM (inactive) | > 875 µM (inactive) | > 875 µM (inactive) |  | > 875 µM (inactive) | > 875 µM (inactive) | > 875 µM (inactive) | > 875 µM (inactive) | > 875 µM (inactive) | > 875 µM (inactive) | > 875 µM (inactive) | > 875 µM (inactive) | > 875 µM (inactive) | > 875 µM (inactive) | > 875 µM (inactive) | > 875 µM (inactive) | > 875 µM (inactive) | 344 µM (inactive) | > 875 µM (inactive)
15 | CCN(c1n[n+]2c(-c3ccccc3)csc2s1)c1n[n+]2c(-c3ccccc3)csc2s1 | 35.6 µM (inactive) | > 100 µM (inactive) | > 100 µM (inactive) | 92.5 µM (inactive) | 33.3 µM (inactive) | 26.4 µM (inactive) | > 100 µM (inactive) | 44.1 µM (inactive) |  | 74.3 µM (inactive) | 53.1 µM (inactive) | > 100 µM (inactive) | > 100 µM (inactive) | > 100 µM (inactive) | 23.3 µM (inactive) | > 100 µM (inactive) | > 100 µM (inactive) | 66.1 µM (inactive) | > 100 µM (inactive) | 
16 | CN(C)CCCOC(=O)C(c1ccccc1)C1(O)CCSCC1 (stereo unspecified) | > 100 µM (inactive) | > 100 µM (inactive) | > 100 µM (inactive) | > 100 µM (inactive) |  | > 100 µM (inactive) | > 100 µM (inactive) | > 100 µM (inactive) | > 100 µM (inactive) | > 100 µM (inactive) | > 100 µM (inactive) | > 100 µM (inactive) | > 100 µM (inactive) | > 100 µM (inactive) | > 100 µM (inactive) | 79.1 µM (inactive) | 87.1 µM (inactive) | > 100 µM (inactive) | > 100 µM (inactive) | 10.2 µM (inactive)
